From patent US20240024320A1, “METHODS OF TREATING CANCER WITH A COMBINATION OF TUCATINIB AND AN ANTI-PD-1/ANTI-PD-L1 ANTIBODY” (Seagen Inc., priority 2020, published 2024)
“Also recorded” adds a separate entry of the source.

Legend:
[1] = system: Fo5 tumors; assay: ex vivo RNA sequencing / gene expression analysis of Fo5 tumors; format: in vivo, FVB mice
Protocol: The harvested tumors were then processed for stranded polyA RNA sequencing. […] Columns represent individual tumor samples and rows are individual genes.
Genomic analysis of mouse samples. RNA was extracted from Fo5 tumors treated in vivo with tucatinib at 50 mg/kg or vehicle (methyl cellulose, 0.5%) for 10 days using TRIzol® Reagent with the PureLink® RNA Mini Kit (Invitrogen™, Thermo Fisher Scientific, Waltham, MA, USA). Quantity and integrity of the total RNA was checked using a TapeStation 2200 (Agilent Technologies) and 500 ng used for library preparation according to standard protocols (NEBNext Ultra II Directional RNA Library Prep Kit for Illumina and NEBNext Poly(A) mRNA Magnetic Isolation Module, NEB). Indexed libraries were pooled and sequenced on a NextSeq500 flowcell (Illumina) to generate 25-50 million paired-end 75 bp reads per sample. Pre-processing and quantile normalization of microarray data was performed with the AFFY package in R. From normalized RNA intensities, unbiased, differential expression analysis and a short list of gene (FDR<0.05) was generated with the LIMMA package in R. Using the differentially expressed genes, pathway and molecular function enrichment analysis was performed in MetCore GeneCo. The GSEA software for gene set enrichment analysis was used with normalized RNA intensities. The false discovery rate was set at <10%. Top gene pathways were selected based on a P-value of <0.05 and a fold change of >1.5. All analyses were performed using R version 3.5.0. Gene sets for differential expression heat maps included interferon-γ 10-gene, preliminary expanded immune 28-gene, T cell inflamed 18-gene, and T-effector 6-gene signature sets, all of which have been associated with PD-1 or PD-L1 blockade amongst a range of tumor types, including breast cancer.

[2] = system: Fo5 tumors; assay: Fo5 trastuzumab-resistant HER2-positive murine tumor model: tumor growth and survival; format: in vivo, FVB mice
[3] = system: SKBR3; assay: growth inhibition assay (CellTitre-Glo), SKBR3; format: cell-based, human; settings: SKBR3, dose-dependent cell growth inhibition; FIG. 5B
[4] = system: H2N113 tumors; format: in vivo
[5] = molecular target: HER2 (Homo sapiens, UniProt P04626); settings: cellular signaling assays; background statement; cited from earlier work
HER2, sequence (P04626 23-1255): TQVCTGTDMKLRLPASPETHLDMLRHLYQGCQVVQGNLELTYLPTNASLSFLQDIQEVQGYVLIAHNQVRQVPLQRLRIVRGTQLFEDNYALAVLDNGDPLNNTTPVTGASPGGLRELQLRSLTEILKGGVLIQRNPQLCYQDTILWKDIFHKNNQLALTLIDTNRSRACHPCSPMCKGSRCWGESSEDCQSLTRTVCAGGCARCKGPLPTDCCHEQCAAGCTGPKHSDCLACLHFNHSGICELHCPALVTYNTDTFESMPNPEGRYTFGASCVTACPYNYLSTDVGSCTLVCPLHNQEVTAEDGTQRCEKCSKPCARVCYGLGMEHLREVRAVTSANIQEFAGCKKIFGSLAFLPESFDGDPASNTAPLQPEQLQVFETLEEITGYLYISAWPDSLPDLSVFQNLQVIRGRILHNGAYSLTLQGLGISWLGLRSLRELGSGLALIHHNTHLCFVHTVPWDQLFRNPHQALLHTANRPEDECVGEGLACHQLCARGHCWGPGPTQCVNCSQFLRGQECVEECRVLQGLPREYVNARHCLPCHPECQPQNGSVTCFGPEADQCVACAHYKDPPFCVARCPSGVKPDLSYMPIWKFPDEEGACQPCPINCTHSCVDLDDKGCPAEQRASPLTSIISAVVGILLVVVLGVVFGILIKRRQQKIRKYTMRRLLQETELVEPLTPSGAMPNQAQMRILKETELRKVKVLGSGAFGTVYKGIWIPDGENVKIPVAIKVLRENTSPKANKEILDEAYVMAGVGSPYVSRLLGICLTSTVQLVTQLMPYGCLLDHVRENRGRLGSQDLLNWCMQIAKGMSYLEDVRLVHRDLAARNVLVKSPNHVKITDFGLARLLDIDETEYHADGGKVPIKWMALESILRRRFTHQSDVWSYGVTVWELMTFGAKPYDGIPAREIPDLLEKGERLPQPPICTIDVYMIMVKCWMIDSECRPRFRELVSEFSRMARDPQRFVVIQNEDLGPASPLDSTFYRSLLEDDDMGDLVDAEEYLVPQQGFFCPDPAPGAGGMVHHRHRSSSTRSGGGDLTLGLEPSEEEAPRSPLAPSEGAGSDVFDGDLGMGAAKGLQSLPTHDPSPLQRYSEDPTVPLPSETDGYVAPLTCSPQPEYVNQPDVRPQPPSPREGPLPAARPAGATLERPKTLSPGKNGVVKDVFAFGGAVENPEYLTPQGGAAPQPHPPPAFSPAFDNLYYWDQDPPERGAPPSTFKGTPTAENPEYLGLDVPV

[6] = system: BT474; assay: growth inhibition assay (CellTitre-Glo), BT474; format: cell-based, human; settings: BT474, dose-dependent cell growth inhibition; FIG. 5A
[7] = system: Fo5 tumors; assay: ex vivo FACS analysis of trastuzumab resistant Fo5 tumors; format: in vivo, FVB mice
Protocol: Tumors were harvested after 10-14 days of tucatinib 50 mg/kg treatment for Fo5 tumors and analyzed by FACS.
In vivo mouse studies. Female MMTV/Balb/c and FVB mice between 6 to 8 weeks of age were utilized for experiments. Treatment groups consisted of n=5 to 8 mice per group. […] Randomization and treatment commenced at approximately day 10 post-inoculation for the H2N113 tumor model with tumor sizes varying between 40 to 80 mm^3 and approximately day 14 for the Fo5 tumor model with tumor sizes varying between 60 to 120 mm^3. Tumor volumes were calculated using the equation […], where length and width refer to the larger and smaller dimensions collected at each measurement. […] Immunotherapy and isotype controls in both models were delivered on days 0, 4, 8, and 12. Tumor volumes were measured twice weekly with calipers. Survival was monitored and determined when the tumors reached an ethical limit of 1500 mm^3.
Flow cytometry analysis. For ex vivo studies, tumors were dissected, mechanically morcellated and passed through 70 μm filters. Cells were then resuspended in 30 μg/mL DNAse (Sigma-Aldrich) followed by Fc block (clone 2.4g2). Single cell suspensions were then stained with antibody cocktails for various TIL subsets. In some experiments, isolated cells were stimulated with phorbol 12-myristate 13-acetate (PMA; 50 ng/mL) and ionomycin (1 μg/mL; Sigma-Aldrich) in the presence of GolgiPlug (BD Biosciences; 1:1000) and GolgiStop (BD Biosciences; 1:1500) for 3 to 4 hours prior to flow cytometry analysis. Samples were analyzed by FACS with either Fixable Yellow or Zombie Red to discriminate viable and dead cells. BD fluorosphere counting beads were added to cocktails before running sample.

[8] = system: HER2 signaling pathway; assay: Western blot for phosphor-HER2 and total HER2, Fo5 tumors; format: in vivo, FVB mice; settings: Fo5 tumors treated with tucatinib vs vehicle; FIG. 11A
[9] = system: H2N113 tumors; format: in vivo; remark: listed apart in the source
[10] = system: H2N113; assay: growth inhibition assay (CellTitre-Glo), H2N113; format: cell-based, murine; settings: H2N113, dose-dependent cell growth inhibition; FIG. 5C
[11] = system: HER2 signaling pathway; assay: Western blot for phosphor-HER2 and total HER2, H2N113 cells; format: cell-based, murine; settings: H2N113 cells treated with tucatinib vs vehicle; FIG. 11B
[12] = Example 4, after 14 days of tucatinib treatment
[13] = Example 4, tucatinib treated tumors
[14] = tucatinib 100 mg/kg orally once daily, 14 days, FIG. 2L
[15] = Example 4, after 10 days of tucatinib, FIG. 16A-16B
[16] = Example 4, after 10 days of tucatinib, FIG. 16C-16D

In the case of `Cc1cc(Nc2ncnc3ccc(NC4=NC(C)(C)CO4)cc23)ccc1Oc1ccn2ncnc2c1` [tucatinib, N^4-(4-([1,2,4]triazolo[1,5-a]pyridin-7-yloxy)-3-methylphenyl)-N-(4,4-dimethyl-4,5-dihydrooxazol-2-yl) quinazoline-4,6-diamine], the “genes associated with favorable clinical response to checkpoint inhibitors” value ([1]; day 10 post treatment, differential gene expression, FIG. 21A-21D) is reported as “upregulation”, the “genes related to immune cell function” value ([1]; day 10 post treatment, tucatinib 50 mg/kg vs vehicle, FIG. 17, 18A-18B) is reported as “significant upregulation” and the “genes related to antigen presentation” value ([1]; day 10 post treatment, tucatinib 50 mg/kg vs vehicle, FIG. 19, 20A-20B) is reported as “significant upregulation”. For the same compound, the “expression of genes predictive of response to immunotherapy (IFNγ-related gene expression signature, expanded immune signature)” value ([1]; stranded polyA RNA sequencing, tucatinib vs vehicle, FIG. 3A, 3B) was “increased expression”, the tumor growth ([2]; tucatinib 25, 50, 100 mg/kg orally once daily vs vehicle, p<0.05) was “significantly inhibited tumor growth in a dose-dependent manner; also recorded: significant dose-dependent tumor growth inhibition” and the survival ([2]; tucatinib at increasing doses vs vehicle, FIG. 9B) was “improved survival”. For the same compound, the “GI50 at 72 hours” value [3] was “nanomolar range”, the “CD8+ effector memory (CD44+CD62L−) T cell frequency as a percentage of total CD8+” value [4, 12] was “increased” and the “PD-1+ expression of CD8+ effector memory T cells” value [4, 12] was “significantly higher”. The “TIM3+ expression of CD8+ effector memory T cells” value [4, 12] was “significantly higher”, the “CD8+ proportion” value ([4]; Example 4, after 14 days of tucatinib treatment vs vehicle) was “increased” and the “expression of Ki67 in CD8+ effector memory T cells” value ([4]; Example 4, day 14, FIG. 13A) was “increased expression”. The “interferon-7 expression in CD8+ effector memory T cells compared to vehicle treated controls” value ([4]; Example 4, day 14, FIG. 13B) was “significantly greater”, the “CD49b+ natural killer cell population proportion of CD45+CD3− lymphocytes” value ([4]; Example 4, day 14, FIG. 14) was “significantly increased” and the “CD103+ dendritic cells” value [4, 13] was “significant increase”. The “MHC II+ macrophages” value [4, 13] was “significant increase”, the “granulocytic MDSC as proportion of CD45.2+ lymphocytes” value [4, 13] was “significant decrease” and the “neutrophils (CD11c-F4/80-CD11b+Ly6G+Ly6C+) as proportion of CD45.2+ lymphocytes” value [4, 13] was “significant decrease”. The “suppressive MHC II low macrophages as proportion of CD45.2+ lymphocytes” value [4, 13] was “significant decrease”, the “PD-L1 expression on CD45+ cells (total TILs)” value ([4]; Example 4, tucatinib vs vehicle treated TILs, FIG. 15A-15B) was “increased intensity” and the “infiltration of natural killer (NK) cells in the tumor” value ([4]; tucatinib 100 mg/kg orally once daily, 14 days) was “increase”. The “infiltration of CD8+ T cells in the tumor” value ([4]; tucatinib 100 mg/kg orally once daily, 14 days, vs vehicle, FIG. 2A) was “increase”, the “infiltration of CD4+ T cells not expressing FOXP3 in the tumor” value ([4]; tucatinib 100 mg/kg orally once daily, 14 days, FIG. 2B) was “increase” and the “infiltration of CD4+ T cells expressing FOXP3 in the tumor” value ([4]; tucatinib 100 mg/kg orally once daily, 14 days, FIG. 2C) was “increase”. For the same compound, the “infiltration of CD8+ T cells expressing Ki67 in the tumor” value ([4]; tucatinib 100 mg/kg orally once daily, 14 days, FIG. 2D) was “increase”, the “infiltration of CD8+ T cells expressing IFNγ in the tumor” value ([4]; tucatinib 100 mg/kg orally once daily, 14 days, FIG. 2E) was “increase” and the “infiltration of CD8+ T cells expressing PD-1 in the tumor” value ([4]; tucatinib 100 mg/kg orally once daily, 14 days, FIG. 2F) was “increase”. The “infiltration of CD8+ T cells expressing OX40 in the tumor” value ([4]; tucatinib 100 mg/kg orally once daily, 14 days, FIG. 2G) was “increase”, the “infiltration of CD8+ T cells expressing TIM3 in the tumor” value ([4]; tucatinib 100 mg/kg orally once daily, 14 days, FIG. 2H) was “increase” and the “infiltration of neutrophils in the tumor” value ([4]; tucatinib 100 mg/kg orally once daily, 14 days, FIG. 2J) was “decrease”. The “percentage of CD11 b dendritic cells in the tumor” value ([4]; tucatinib 100 mg/kg orally once daily, 14 days, FIG. 2K) was “increase”, the “percentage of MHC-II high in the tumor” value [4, 14] was “increase” and the “percentage of MHC-II low in the tumor” value [4, 14] was “decrease”. The “selectivity for HER2 compared to the closely related kinase EGFR” value [5] was > 1000 fold, the “GI50 at 72 hours” value [6] was “nanomolar range” and the “interferon-7 expression in CD4+ effector memory T cell subset” value [7, 15] was “increased”. For the same compound, the “interferon-7 expression in CD8+ effector memory T cell subset” value [7, 15] was “increased”, the “PD-1+ expression in CD8+ effector memory T cells” value [7, 16] was “increased” and the “granzyme B expression in CD8+ effector memory T cells” value [7, 16] was “increased”. For the same compound, the “infiltration of CD8+ T cells expressing PD-1 in the tumor” value ([7]; tucatinib 50 mg/kg orally once daily, 10-14 days, vs vehicle, FIG. 1A) was “increase”, the “infiltration of CD8+ T cells expressing IFNγ in the tumor” value ([7]; tucatinib 50 mg/kg orally once daily, 10-14 days, vs vehicle, FIG. 1B) was “increase” and the “infiltration of CD8+ T cells expressing FOXP3 in the tumor” value ([7]; tucatinib 50 mg/kg orally once daily, 10-14 days, vs vehicle, FIG. 1C) was “increase”. For the same compound, the “CD4+ to CD8+ T cell ratio in the tumor” value ([7]; tucatinib 50 mg/kg orally once daily, 10-14 days, vs vehicle, FIG. 1D) was “moderate increase”, the “HER2 signaling pathway (phosphor-HER2 and total HER2)” value [8] was “Inhibition of the HER2 signaling pathway” and the tumor growth ([9]; tucatinib at increasing doses by oral gavage vs vehicle) was “significant dose-dependent tumor growth inhibition”. The survival ([9]; tucatinib at increasing doses vs vehicle, FIG. 8B) was “improved survival”, the “GI50 at 72 hours” value [10] was “nanomolar range” and the “HER2 signaling pathway (phosphor-HER2 and total HER2)” value [11] was “Inhibition of the HER2 signaling pathway”.
